Source: patent US20150141381A1, “TETRACYCLINE COMPOUNDS HAVING TARGET THERAPEUTIC ACTIVITIES” (Paratek Pharmaceuticals, Inc., priority 2001, published 2015)
Like-named read-outs stand apart in the source and are kept apart here.

Experiments:
[1] = tested on: S. aureus RN450; test: In Vitro Anti-Bacterial Activity Assay (MIC), gram positive; type: cell-based; conditions: for MIC: Staphylococcus aureus, RN450, 18 h
[2] = tested on: E. coli mL308 225; test: In Vitro Anti-Bacterial Activity Assay (MIC), gram negative; type: cell-based; conditions: for MIC: Escherichia coli, ML308225, 18 h
[3] = gram positive bacteria, read-out: Antibiotic Activity Gram + (MIC)
[4] = gram negative bacteria, read-out: Antibiotic Activity Gram − (MIC)
[5] = MIC class, Table 3, read-out: Antibiotic Activity Gram +
[6] = MIC class, Table 3, read-out: Antibiotic Activity Gram −
[7] = MIC class, Table 3 (Continued), read-out: Gram+ activity
[8] = MIC class, Table 3 (Continued), read-out: Gram− activity

| SMILES | MIC [1, 3] [µg/mL] | MIC [2, 4] [µg/mL] | MIC [1, 5] [µg/mL] | MIC [2, 6] [µg/mL] | other results |
| --- | --- | --- | --- | --- | --- |
| COCC(=O)Nc1cccc(-c2ccc(O)c3c2C[C@H]2C[C@H]4[C@H](N(C)C)C(O)=C(C(N)=O)C(=O)[C@@]4(O)C(O)=C2C3=O)c1 | < 4 | > 4 | – | – | – |
| COc1ccc(-c2ccc(O)c3c2C[C@H]2C[C@H]4[C@H](N(C)C)C(O)=C(C(N)=O)C(=O)[C@@]4(O)C(O)=C2C3=O)cc1CN1CCN(C)CC1 [JY] | – | – | < 4 | > 4 | – |
| CO/N=C(/C)c1ccc(O)c2c1C[C@H]1C[C@H]3C(N(C)C)C(O)=C(C(N)=O)C(=O)[C@@]3(O)C(O)=C1C2=O (some centres unmarked) [ET] | – | – | < 4 | < 4 | – |
| CN(C)c1cc(C=O)c(O)c2c1C[C@H]1C[C@H]3[C@@H](N(C)C)C(O)=C(C(N)=O)C(=O)[C@@]3(O)C(O)=C1C2=O [NM] | – | – | < 4 | < 4 | – |
| CC(C)CNCc1cc(N(C)C)c2c(c1O)C(=O)C1=C(O)[C@]3(O)C(=O)C(C(N)=O)=C(O)[C@@H](N(C)C)[C@@H]3C[C@@H]1C2 [drawing 3475] | – | – | – | – | Antibiotic Activity Gram + (MIC) ([1]; gram positive bacteria): * (compounds with an MIC of greater than 4 μg/ml are indicated with *); Antibiotic Activity Gram − (MIC) ([2]; gram negative bacteria): * (compounds with an MIC of greater than 4 μg/ml are indicated with *) |
| CCCCOC(=O)c1ccc(O)c2c1C[C@H]1C[C@H]3[C@H](N(C)C)C(O)=C(C(N)=O)C(=O)[C@@]3(O)C(O)=C1C2=O | < 4 | < 4 | – | – | – |
| CN(C)[C@@H]1C(O)=C(C(N)=O)C(=O)[C@@]2(O)C(O)=C3C(=O)c4c(O)c(CN)cc(-c5cccc([N+](=O)O)c5)c4C[C@H]3C[C@@H]12 [DE] | – | – | < 4 | > 4 | – |
| Cc1ccc(C#Cc2ccc(O)c3c2C[C@H]2C[C@H]4[C@H](N(C)C)C(O)=C(C(N)=O)C(=O)[C@@]4(O)C(O)=C2C3=O)cc1 | – | – | – | – | MIC [1, 7]: < 4 µg/mL; MIC [2, 8]: < 4 µg/mL |
| CN(C)c1cc(CNCC2CC2)c(O)c2c1C[C@H]1C[C@H]3[C@H](N(C)C)C(O)=C(C(N)=O)C(=O)[C@@]3(O)C(O)=C1C2=O | < 4 | > 4 | – | – | – |
| CN(C)[C@@H]1C(O)=C(C(N)=O)C(=O)[C@@]2(O)C(O)=C3C(=O)c4c(O)ccc(C5C=CCC5)c4C[C@H]3C[C@@H]12 (some centres unmarked) | – | – | – | – | MIC [1, 7]: < 4 µg/mL; MIC [2, 8]: < 4 µg/mL |
| CN(C)[C@@H]1C(O)=C(C(N)=O)C(=O)[C@@]2(O)C(O)=C3C(=O)c4c(O)ccc(-c5ccc(NC(=O)c6ccno6)cc5)c4C[C@H]3C[C@@H]12 [IN] | – | – | < 4 | > 4 | – |
| CC(=O)c1cc(N(C)C)c2c(c1O)C(=O)C1=C(O)[C@]3(O)C(=O)C(C(N)=O)=C(O)[C@@H](N(C)C)[C@@H]3C[C@@H]1C2 [MQ] | – | – | > 4 | > 4 | – |
| COC(=O)c1ccc2c(c1O)C(=O)C1=C(O)[C@]3(O)C(=O)C(C(N)=O)=C(O)[C@@H](N(C)C)[C@@H]3[C@@H](O)[C@@H]1[C@H]2C | > 4 | > 4 | – | – | – |
| C[C@H]1c2cccc(O)c2C(=O)C2=C(O)[C@]3(O)C(=O)C(C(N)=O)=C(O)[C@@H](N(C)C)[C@@H]3[C@@H](O)[C@@H]21 [drawing 3668] | – | – | – | – | Antibiotic Activity Gram + (MIC) ([1]; gram positive bacteria): ** (compounds with MIC less than or equal to 4 μg/ml are indicated with **); Antibiotic Activity Gram − (MIC) ([2]; gram negative bacteria): * (compounds with an MIC of greater than 4 μg/ml are indicated with *) |
| CN(C)[C@@H]1C(O)=C(C(N)=O)C(=O)[C@@]2(O)C(O)=C3C(=O)c4c(ccc(NCCNC(C)(C)C)c4O)C[C@H]3C[C@@H]12 | < 4 | < 4 | – | – | – |
| C[C@H]1c2ccc(NC3CC(C)(C)NC(C)(C)C3)c(O)c2C(=O)C2=C(O)[C@]3(O)C(=O)C(C(N)=O)=C(O)[C@@H](N(C)C)[C@@H]3[C@@H](O)[C@@H]21 | < 4 | > 4 | – | – | – |
| CN(C)c1cc(CN2CCC3(CCCC3)CC2)c(O)c2c1C[C@H]1C[C@H]3[C@H](N(C)C)C(O)=C(C(N)=O)C(=O)[C@@]3(O)C(O)=C1C2=O | < 4 | < 4 | – | – | – |
| CN(C)c1cc(C#CCc2ccccc2)c(O)c2c1C[C@H]1C[C@H]3[C@H](N(C)C)C(O)=C(C(N)=O)C(=O)[C@@]3(O)C(O)=C1C2=O [DQ] | – | – | < 4 | > 4 | – |
| CCc1cc(CNC(=O)c2cccnc2)c(O)c2c1C[C@H]1C[C@H]3[C@H](N(C)C)C(O)=C(C(N)=O)C(=O)[C@@]3(O)C(O)=C1C2=O [CS] | – | – | > 4 | > 4 | – |
| CN(C)CCN(Cc1ccccc1)Cc1ccc(-c2cc(N(C)C)c3c(c2O)C(=O)C2=C(O)[C@]4(O)C(=O)C(C(N)=O)=C(O)[C@@H](N(C)C)[C@@H]4C[C@@H]2C3)o1 | > 4 | > 4 | – | – | – |
| CN(C)[C@@H]1C(O)=C(C(N)=O)C(=O)[C@@]2(O)C(O)=C3C(=O)c4c(O)ccc(/C=C(\Cl)CO)c4C[C@H]3C[C@@H]12 | – | – | – | – | MIC [1, 7]: < 4 µg/mL; MIC [2, 8]: > 4 µg/mL |
| CC(=O)c1ccc(-c2cc(N(C)C)c3c(c2O)C(=O)C2=C(O)[C@]4(O)C(=O)C(C(N)=O)=C(O)[C@@H](N(C)C)[C@@H]4C[C@@H]2C3)cc1 | < 4 | > 4 | – | – | – |

| SMILES | MIC [1, 3] [µg/mL] | MIC [2, 4] [µg/mL] | MIC [1, 5] [µg/mL] | MIC [2, 6] [µg/mL] | other results |
| --- | --- | --- | --- | --- | --- |
| CN(C)[C@@H]1C(O)=C(C(N)=O)C(=O)[C@@]2(O)C(O)=C3C(=O)c4c(cccc4OCCCO)C[C@H]3C[C@@H]12 | > 4 | > 4 | – | – | – |
| CN(C)[C@@H]1C(O)=C(C(N)=O)C(=O)[C@@]2(O)C(O)=C3C(=O)c4c(ccc(NC(=O)Nc5cccc6ccccc56)c4O)C[C@H]3C[C@@H]12 [AU] | – | – | < 4 | > 4 | – |
| COc1ccc(CCc2ccc(O)c3c2C[C@H]2C[C@H]4[C@H](N(C)C)C(O)=C(C(N)=O)C(=O)[C@@]4(O)C(O)=C2C3=O)cc1 | – | – | – | – | MIC [1, 7]: < 4 µg/mL; MIC [2, 8]: < 4 µg/mL |
| CC1CCN(CC(=O)c2ccc(O)c3c2C[C@H]2C[C@H]4[C@H](N(C)C)C(O)=C(C(N)=O)C(=O)[C@@]4(O)C(O)=C2C3=O)CC1 | < 4 | > 4 | – | – | – |
| CN(C)[C@@H]1C(O)=C(C(N)=O)C(=O)[C@@]2(O)C(O)=C3C(=O)c4c(O)ccc(C#Cc5ccccc5)c4C[C@H]3C[C@@H]12 | – | – | – | – | MIC [1, 7]: < 4 µg/mL; MIC [2, 8]: < 4 µg/mL |
| COc1cccc(C#Cc2ccc(O)c3c2C[C@H]2C[C@H]4[C@H](N(C)C)C(O)=C(C(N)=O)C(=O)[C@@]4(O)C(O)=C2C3=O)c1 | – | – | – | – | MIC [1, 7]: < 4 µg/mL; MIC [2, 8]: < 4 µg/mL |
| COCc1cccc(-c2ccc(O)c3c2C[C@H]2C[C@H]4[C@H](N(C)C)C(O)=C(C(N)=O)C(=O)[C@@]4(O)C(O)=C2C3=O)c1 | < 4 | < 4 | – | – | – |
| CN(C)c1cc(NCc2cc[nH]n2)c(O)c2c1C[C@H]1C[C@H]3[C@H](N(C)C)C(O)=C(C(N)=O)C(=O)[C@@]3(O)C(O)=C1C2=O | > 4 | > 4 | – | – | – |
| CN(C)[C@@H]1C(O)=C(C(N)=O)C(=O)[C@@]2(O)C(O)=C3C(=O)c4c(O)ccc(-c5ccc(C(C)(C)C)cc5)c4C[C@H]3C[C@@H]12 [drawing 3426] | < 4 | < 4 | – | – | – |
| CC(CCO)NCc1cc(N(C)C)c2c(c1O)C(=O)C1=C(O)[C@]3(O)C(=O)C(C(N)=O)=C(O)[C@@H](N(C)C)[C@@H]3C[C@@H]1C2 (some centres unmarked) | < 4 | > 4 | – | – | – |
| COc1ccc(OC(=O)Nc2ccc(-c3ccc(O)c4c3C[C@H]3C[C@H]5[C@@H](N(C)C)C(O)=C(C(N)=O)C(=O)[C@@]5(O)C(O)=C3C4=O)cc2)cc1 [GC] | – | – | – | – | MIC ([1]; read-out: Antibiotic Activity Gram +): > 4 µg/mL; MIC ([2]; read-out: Antibiotic Activity Gram −): > 4 µg/mL |
| COc1ccc(-c2ccc3c(c2O)C(=O)C2=C(O)[C@]4(O)C(=O)C(C(N)=O)=C(O)[C@@H](N(C)C)[C@@H]4[C@@H](O)[C@@H]2C3C)cc1 (some centres unmarked) | – | – | – | – | MIC [1, 7]: < 4 µg/mL; MIC [2, 8]: < 4 µg/mL |
| CC(CC(F)(F)F)N(C)Cc1cc(N(C)C)c2c(c1O)C(=O)C1=C(O)[C@]3(O)C(=O)C(C(N)=O)=C(O)[C@@H](N(C)C)[C@@H]3C[C@@H]1C2 (some centres unmarked) | < 4 | < 4 | – | – | – |
| CN(C)c1cc(-c2ccc(C(=O)O)cc2)c(O)c2c1C[C@H]1C[C@H]3[C@@H](N(C)C)C(O)=C(C(N)=O)C(=O)[C@@]3(O)C(O)=C1C2=O [AP] | – | – | > 4 | > 4 | – |
| CONCc1ccc(-c2cc(N(C)C)c3c(c2O)C(=O)C2=C(O)[C@]4(O)C(=O)C(C(N)=O)=C(O)[C@@H](N(C)C)[C@@H]4C[C@@H]2C3)[nH]1 | < 4 | < 4 | – | – | – |
| CC(=O)Nc1ccc(C#Cc2ccc(O)c3c2C[C@H]2C[C@H]4[C@H](N(C)C)C(O)=C(C(N)=O)C(=O)[C@@]4(O)C(O)=C2C3=O)cc1 [CO] | – | – | < 4 | > 4 | – |
| CCc1cc(CN)c(O)c2c1C[C@H]1C[C@H]3[C@H](N(C)C)C(O)=C(C(N)=O)C(=O)[C@@]3(O)C(O)=C1C2=O [CT] | – | – | > 4 | < 4 | – |
| CN(C)c1cc(NS(=O)(=O)c2ccccc2)c(O)c2c1C[C@H]1C[C@H]3[C@H](N(C)C)C(O)=C(C(N)=O)C(=O)[C@@]3(O)C(O)=C1C2=O [AE] | – | – | < 4 | < 4 | – |
| COc1ccc(-c2ccc(O)c3c2C[C@H]2C[C@H]4[C@H](N(C)C)C(O)=C(C(N)=O)C(=O)[C@@]4(O)C(O)=C2C3=O)cc1 [drawing 3312] | – | – | – | – | Gram+ activity ([1]; MIC class, Table 3 (Continued)): ** (compounds with MIC less than or equal to 4 μg/ml are indicated with **); Gram− activity ([2]; MIC class, Table 3 (Continued)): ** (compounds with MIC less than or equal to 4 μg/ml are indicated with **) |
| CN(C)[C@@H]1C(O)=C(C(N)=O)C(=O)[C@@]2(O)C(O)=C3C(=O)c4c(ccc(N5CCCCC5)c4O)C[C@H]3C[C@@H]12 | > 4 | > 4 | – | – | – |
| COc1ccc(CNCCC#N)cc1-c1ccc(O)c2c1C[C@H]1C[C@H]3[C@H](N(C)C)C(O)=C(C(N)=O)C(=O)[C@@]3(O)C(O)=C1C2=O | < 4 | > 4 | – | – | – |
